Source: EP2698385A1, “Detection of synthetic cannabinoids” (priority 2012, dated 2014)
Where two headings read alike, the source gives them in different places.

Assays:
Assay type in all cases: binding, sheep
Antibody to Immunogen I = details: Cross-reactants at 100 ng/ml; Antibody to Immunogen I
Experimental: (§1) An aqueous solution of each immunogen was formulated with Freund's Complete Adjuvant (FCA) to form an emulsion consisting of 2mg/ml* immunogen in 50% (v/v) FCA. Three sheep were immunised with this emulsion (1° immunisation), 0.25ml being intramuscularly injected at each of four sites in the flank of each animal. Subsequent immunizations (boosts) contained 1mg/ml* immunogen. All boosts were emulsified in 50% (v/v) Freund's Incomplete Adjuvant (FIA) and were administered in the same manner as the 1° immunisation, at monthly intervals. Blood sampling took place 7 to 14 days after each boost. *The general procedure for immunogen administration is outlined above, however, it was necessary to deviate from this protocol in some cases, due to reduced immunogen concentrations (Immunogens II, IV, VII and VIII) and/or amount available (Immunogen VIII). Any deviations from the protocol described are outlined in Table 1A below and highlighted in bold. Table 1A: Amount and volume of immunogens administered for primary and subsequent boosts
(§2) The wells of an enhanced binding 96 well polystyrene microtiter plate were coated with IgG fraction of antiserum raised to Immunogen I or II, diluted in 10mM Tris, pH8.5 (125µl/well). The appropriate antibody coating dilution was determined using standard ELISA checkerboard techniques. The plate was incubated overnight at 4°C, washed 4 times over 10 minutes with Tris buffered saline containing Tween 20 (TBST) and tapped dry. Standard solutions (JWH-018 for Immunogens I and II) were applied at 0, 0.625, 1.25, 2.5, 5, 10, 20 and 40ng/ml and 50µl of each was added to the appropriate wells. 75µl of conjugate (appropriate hapten-HRP) diluted in Tris buffer (pH 7.2) containing EDTA, D-mannitol, sucrose, thimerosal and BSA, was added to each of the wells. The appropriate dilution of conjugate was also determined using standard ELISA checkerboard techniques. The plate was incubated at 25°C for 1 hour. Excess unbound conjugate was removed by washing 6 times over a 10 minute period with TBST. 125µl of tetramethylbenzidine (TMB) substrate solution was added to each well of the plate that was then incubated for 20 minutes in the dark at room temperature. The reaction was terminated by addition of 125µl 0.2M H2SO4 to each well. The absorbance was then measured at 450nm using a microtiter plate reader. The data are inputted to a computer program called 'KC Junior'. It is a 4 parameter fit curve and allow the calculatation of concentrations between the standard runs. This program is used to calculate the IC50s by dividing the 0ng/ml OD value by 2 and obtaining the concentration value from the curve for this OD.
In a similar manner to that described above, the wells of a 96-well microtiter plate were coated with the IgG fraction of the antiserum raised to Immunogens I or II. Standard solutions (JWH-018 for Immunogen I and II) were applied at 0, 0.625, 1.25, 2.5, 5, 10, 20 and 40ng/ml and conjugate was employed as detection reagent.
(§3) The data set our in Tables 3 and 4 are generated using antibodies raised against the indicated Immunogens in a competitive binding assay with the indicated tracers, using the indicated standards: Table 2
(§4) A450 = absorbance at 450nm B = absorbance at 450nm at xng/ml standard concentration B0 = absorbance at 450nm at 0ng/ml standard concentration IC50 = standard concentration which produces 50% B/B0
(§5) In order to determine the specificity of the competitive ELISAs, standard solutions of a range of structurally similar synthetic cannabinoids and their metabolites were prepared in TBST. Using the calibration curves generated and employing a single level of cross reactants, these were used to determine the cross-reactivity of each immunoassay with these substances. […]

Antibody to Immunogen IV = tested on: Antibody to Immunogen IV
Experimental: as §1, §2
(§6) In a similar manner to that described above, the wells of a 96-well microtiter plate were coated with the IgG fraction of the antiserum raised to Immunogens IV, VII or VIII. Standard solutions (JWH-018 for Immunogens IV and VIII, JWH-015 for Immunogen VII) were prepared in TBST at 0, 1.25, 2.5, 5, 10, 20, 40 and 80ng/ml and conjugate was employed as detection reagent.
as §3, §4, §5

[1] = tested on: Antibody to Immunogen VIII
Experimental: as §1, §2, §6, §3, §4, §5

[2] = tested on: Antibody to Immunogen VII
Experimental: as §1, §2, §6, §3, §4, §5

[3] = Cross-reactants at 100 ng/ml, Antibody to Immunogen IV
[4] = Cross-reactants at 100 ng/ml, Antibody to Immunogen VIII
[5] = Cross-reactants at 100 ng/ml, Antibody to Immunogen VII

Row | Compound | %B/B0 (Antibody to Immunogen I) [%] | %B/B0 (Antibody to Immunogen IV; [3]) [%] | %B/B0 [1, 4] [%] | %B/B0 [2, 5] [%] | %B/B0 (Antibody to Immunogen IV) [%] | %B/B0 [1] [%] | %B/B0 [2] [%]
1 | CCCCCn1c(C)c(C(=O)c2ccc(OC)c3ccccc23)c2ccccc21 [JWH-098] | 77.58 | 44.03 | 59.80 | 82.85 |  |  | 
2 | CCCCCn1cc(C(=O)Cc2cccc(OC)c2)c2ccccc21 [JWH-302] | 84.66 | 45.67 | 7.97 | 104.92 |  |  | 
3 | CCCCCn1cc(C(=O)Cc2cccc(C)c2)c2ccccc21 [JWH 251 3-methylphenyl isomer] | 85.90 | 51.15 | 8.97 | 99.32 |  |  | 
4 | COc1ccc(C(=O)c2cn(CCCCCC(=O)O)c3ccccc23)cc1 [RCS-4 N-(5-carboxypentyl) metabolite] | 77.12 | 91.44 | 91.97 | 94.00 |  |  | 
5 | CCCCn1c(O)c(C(=O)c2cccc3ccccc23)c2ccccc21 [JWH-073 2-hydroxyindole metabolite] | 89.62 | 89.63 | 93.42 | 92.65 |  |  | 
6 | CCCCCn1cc(C(=O)Cc2ccc(OC)cc2)c2ccccc21 [JWH-201] | 77.14 | 59.03 | 8.26 | 100.25 |  |  | 
7 | CCCCCC(C)n1c(C)c(C(=O)c2cccc3ccccc23)c2ccccc21 (stereo not shown) [JWH-011] | 62.13 | 99.19 | 97.49 | 57.43 |  |  | 
8 | COc1ccc(C(=O)c2c(C)n(CCN3CCOCC3)c3ccccc23)cc1 [WIN-48,098 (other name Pravadoline), Pravadoline] | 90.05 | 91.64 | 97.90 | 92.41 |  |  | 
9 | CCCCCn1ccc(C(=O)c2cccc3ccccc23)c1 [JWH-030] | 61.17 | 93.17 | 94.25 | 89.66 |  |  | 
10 | CCCCCn1cc(C(=O)C23CC4CC(CC(C4)C2)C3)c2ccccc21 [JWH 018 adamantyl analog] | 95.94 | 99.02 | 10.97 | 94.48 |  |  | 
11 | JWH-081 2-methoxynaphthyl isomer [JWH-081 2-methoxynaphthyl isomer or (JWH-267)] | 69.58 | 27.67 | 58.20 | 83.43 |  |  | 
12 | CS(=O)(=O)O.Cc1c(C(=O)c2cccc3ccccc23)c2cccc3c2n1[C@@H](CN1CCOCC1)CO3 [Win 55,212-3 mesylate, Win 55,212-3] | 34.00 | 94.57 | 101.30 | 32.31 |  |  | 
13 | CCCCn1cc(C(=O)c2ccc(OC)cc2)c2ccccc21 [RCS-4-C4 homologue] | 76.27 | 27.17 | 9.54 | 100.20 |  |  | 
14 | (-)-11-nor-9-Carboxy-delta9-THC |  |  |  |  | 93.08 | 103.36 | 98.72
15 | CCCCCCC(C)(C)c1cc(OC)c([C@@H]2C=C(CO)[C@@H]3C[C@H]2C3(C)C)c(OC)c1 [HU-308] | 101.35 | 94.03 | 89.77 | 95.95 |  |  | 
16 | (+-)-CP 55,940 [((+-)-CP 55,940)] | 100.61 | 94.60 | 100.25 | 100.25 |  |  | 
17 | CCCCCn1cc(C(=O)c2ccc3ccccc3c2)c2ccccc21 [JWH 018 2'-naphthyl isomer] | 75.90 | 28.13 | 14.94 | 94.98 |  |  | 
